Read-outs that look alike come from different tables or passages of the source.
Experiments:
Assay in all cases: Test C pre/postemergence
Assay type in all cases: in vivo
[1] = test system: Surinam grass (Brachiaria decumbens); conditions: Urochloa decumbens; for pest or weed control at 125 g/ha: 125 g ai/ha; for pest or weed control at 500 g/ha: 500 g ai/ha; for pest or weed control at 62 g/ha: 62 g ai/ha; for pest or weed control at 250 g/ha: 250 g ai/ha
Outline: (§1)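 Pre: seeds planted, sprayed same day. Post: 1- to 4-leaf plants (2–18 cm). Formulation: non-phytotoxic solvent + surfactant. Greenhouse 12–14 d; visual % control vs untreated, 0–100.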

[2] = test system: bermudagrass (Cynodon dactylon); conditions: Cynodon dactylon; for pest or weed control at 62 g/ha: 62 g ai/ha; for pest or weed control at 125 g/ha: 125 g ai/ha; for pest or weed control at 125 g/ha / pest or weed control at 250 g/ha / pest or weed control at 500 g/ha: scale 0 to 100; for pest or weed control at 250 g/ha: 250 g ai/ha; for pest or weed control at 500 g/ha: 500 g ai/ha
Outline: as §1

[3] = test system: common (oilseed) sunflower (Helianthus annuus); conditions: Helianthus annuus, pre-emergence, Preemergence, read-out: Plant response rating, Sunflower
Outline: as §1

[4] = test system: crabgrass (Digitaria sanguinalis); conditions: Digitaria sanguinalis; for pest or weed control at 62 g/ha: 62 g ai/ha; for pest or weed control at 125 g/ha: 125 g ai/ha; for pest or weed control at 250 g/ha: 250 g ai/ha; for pest or weed control at 500 g/ha: 500 g ai/ha
Outline: as §1

[5] = test system: giant foxtail (Setaria faberii); conditions: Setaria faberi; for pest or weed control at 125 g/ha: 125 g ai/ha; for pest or weed control at 500 g/ha: 500 g ai/ha; for pest or weed control at 62 g/ha: 62 g ai/ha; for pest or weed control at 250 g/ha: 250 g ai/ha
Outline: as §1

[6] = test system: goosegrass (Eleusine indica); conditions: Eleusine indica; for pest or weed control at 62 g/ha: 62 g ai/ha; for pest or weed control at 125 g/ha: 125 g ai/ha; for pest or weed control at 250 g/ha: 250 g ai/ha; for pest or weed control at 500 g/ha: 500 g ai/ha
Outline: as §1

[7] = test system: johnsongrass (Sorghum halepense); conditions: Sorghum halepense, post-emergence, Postemergence, scale 0 to 100 (0 no effect, 100 complete control), read-out: Johnsongrass plant response rating
Outline: as §1

[8] = post-emergence, Postemergence, scale 0 to 100 (0 no effect, 100 complete control), read-out: Surinam Grass plant response rating
[9] = post-emergence, Postemergence, scale 0 to 100, read-out: Plant response rating, Surinam Grass
[10] = pre-emergence, Preemergence, scale 0 to 100, read-out: Plant response rating, Surinam Grass
[11] = post-emergence, Postemergence, read-out: Plant response rating, Bermudagrass
[12] = pre-emergence, Preemergence, read-out: Plant response rating, Bermudagrass
[13] = post-emergence, Postemergence, scale 0 to 100 (0 no effect, 100 complete control), read-out: Crabgrass plant response rating
[14] = post-emergence, Postemergence, scale 0 to 100, read-out: Plant response rating, Crabgrass
[15] = pre-emergence, Preemergence, scale 0 to 100, read-out: Plant response rating, Crabgrass
[16] = post-emergence, Postemergence, scale 0 to 100 (0 no effect, 100 complete control), read-out: Foxtail, Giant plant response rating
[17] = post-emergence, Postemergence, scale 0 to 100, read-out: Plant response rating, Foxtail, Giant
[18] = pre-emergence, Preemergence, scale 0 to 100, read-out: Plant response rating, Foxtail, Giant
[19] = post-emergence, Postemergence, scale 0 to 100 (0 no effect, 100 complete control), read-out: Goosegrass plant response rating
[20] = post-emergence, Postemergence, scale 0 to 100, read-out: Plant response rating, Goosegrass
[21] = pre-emergence, Preemergence, scale 0 to 100, read-out: Plant response rating, Goosegrass

CNc1nc(C2CC2)nc(C(=O)OC)c1Br [Compound 5]
pest or weed control at 125 g/ha [1, 8]: 20% | pest or weed control at 500 g/ha [1, 9]: 70% | pest or weed control at 62 g/ha [1, 8]: 0% | pest or weed control at 250 g/ha [1, 9]: 30% | pest or weed control at 62 g/ha ([1]; pre-emergence, Preemergence, scale 0 to 100, 0 no effect, 100 complete control, read-out: Plant response rating, Surinam Grass): 0% | pest or weed control at 125 g/ha [1, 10]: 0% | pest or weed control at 250 g/ha [1, 10]: 0% | pest or weed control at 500 g/ha [1, 10]: 0% | pest or weed control at 62 g/ha ([2]; post-emergence, Postemergence, scale 0 to 100 (0 no effect, 100 complete control), read-out: Bermudagrass plant response rating): 5% | pest or weed control at 125 g/ha [2, 11]: 50% | pest or weed control at 250 g/ha [2, 11]: 70% | pest or weed control at 500 g/ha [2, 11]: 80% | pest or weed control at 62 g/ha ([2]; pre-emergence, Preemergence, scale 0 to 100, 0 no effect, 100 complete control, read-out: Plant response rating, Bermudagrass): 0% | pest or weed control at 125 g/ha [2, 12]: 0% | pest or weed control at 250 g/ha [2, 12]: 30% | pest or weed control at 500 g/ha [2, 12]: 70% | pest or weed control at 62 g/ha ([3]; 62 g ai/ha, scale 0 to 100, 0 no effect, 100 complete control): 60% | pest or weed control at 125 g/ha ([3]; 125 g ai/ha, scale 0 to 100): 90% | pest or weed control at 250 g/ha ([3]; 250 g ai/ha, scale 0 to 100): 100% | pest or weed control at 500 g/ha ([3]; 500 g ai/ha, scale 0 to 100): 100% | pest or weed control at 62 g/ha [4, 13]: 40% | pest or weed control at 125 g/ha [4, 13]: 50% | pest or weed control at 250 g/ha [4, 14]: 70% | pest or weed control at 500 g/ha [4, 14]: 80% | pest or weed control at 62 g/ha ([4]; pre-emergence, Preemergence, scale 0 to 100, 0 no effect, 100 complete control, read-out: Plant response rating, Crabgrass): 0% | pest or weed control at 125 g/ha [4, 15]: 0% | pest or weed control at 250 g/ha [4, 15]: 20% | pest or weed control at 500 g/ha [4, 15]: 60% | pest or weed control at 125 g/ha [5, 16]: 30% | pest or weed control at 500 g/ha [5, 17]: 60% | pest or weed control at 62 g/ha [5, 16]: 20% | pest or weed control at 250 g/ha [5, 17]: 50% | pest or weed control at 62 g/ha ([5]; pre-emergence, Preemergence, scale 0 to 100, 0 no effect, 100 complete control, read-out: Plant response rating, Foxtail, Giant): 0% | pest or weed control at 125 g/ha [5, 18]: 0% | pest or weed control at 250 g/ha [5, 18]: 10% | pest or weed control at 500 g/ha [5, 18]: 60% | pest or weed control at 62 g/ha [6, 19]: 0% | pest or weed control at 125 g/ha [6, 19]: 5% | pest or weed control at 250 g/ha [6, 20]: 40% | pest or weed control at 500 g/ha [6, 20]: 50% | pest or weed control at 62 g/ha ([6]; pre-emergence, Preemergence, scale 0 to 100, 0 no effect, 100 complete control, read-out: Plant response rating, Goosegrass): 0% | pest or weed control at 125 g/ha [6, 21]: 0% | pest or weed control at 250 g/ha [6, 21]: 0% | pest or weed control at 500 g/ha [6, 21]: 40% | pest or weed control at 62 g/ha ([7]; 62 g ai/ha): 0% | pest or weed control at 125 g/ha ([7]; 125 g ai/ha): 40%
